Test system: Mitochondria-located protein genes
Experiment: DNA chip mRNA expression in yeast, mitochondria-located protein genes (Table 2)
Assay type: cell-based, Saccharomyces cerevisiae S288C
Conditions: cells incubated two hours with the chemical substance
Method in brief: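 S. cerevisiae S288C grown at 25° C. in YPD to log phase, then exposed 2 h to a toxicant at a growth-inhibiting, non-lethal concentration; untreated cells as control. Poly(A) mRNA reverse-transcribed with Cy3-dUTP or Cy5-dUTP, hybridized >12 h at 65° C. to whole-genome yeast DNA chip; value = fluorescence ratio treated/untreated.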

In the case of CCCCCCCCCCCCOS(=O)(=O)[O-].[Na+] [(18), sodium lauryl sulfate], the “The level of expressed mRNA in the presence of chemical substance/The level of expressed mRNA in the absence of chemical substance” value (yeast gene YAL039C) is reported as 1.1, the “The level of expressed mRNA in the presence of chemical substance/The level of expressed mRNA in the absence of chemical substance” value (yeast gene YBL022C) is reported as 0.7 and the “The level of expressed mRNA in the presence of chemical substance/The level of expressed mRNA in the absence of chemical substance” value (yeast gene YBL030C) is reported as 1.1. The “The level of expressed mRNA in the presence of chemical substance/The level of expressed mRNA in the absence of chemical substance” value (yeast gene YBL038W) was 1.9, the “The level of expressed mRNA in the presence of chemical substance/The level of expressed mRNA in the absence of chemical substance” value (yeast gene YBL099W) was 1.2 and the “The level of expressed mRNA in the presence of chemical substance/The level of expressed mRNA in the absence of chemical substance” value (yeast gene YBR003W) was 1.3. For the same compound, the “The level of expressed mRNA in the presence of chemical substance/The level of expressed mRNA in the absence of chemical substance” value (yeast gene YBR044C) was 1.3, the “The level of expressed mRNA in the presence of chemical substance/The level of expressed mRNA in the absence of chemical substance” value (yeast gene YBR091C) was 1.0 and the “The level of expressed mRNA in the presence of chemical substance/The level of expressed mRNA in the absence of chemical substance” value (yeast gene YBR122C) was 1.5. The “The level of expressed mRNA in the presence of chemical substance/The level of expressed mRNA in the absence of chemical substance” value (yeast gene YBR185C) was 1.3, the “The level of expressed mRNA in the presence of chemical substance/The level of expressed mRNA in the absence of chemical substance” value (yeast gene YBR221C) was 1.0 and the “The level of expressed mRNA in the presence of chemical substance/The level of expressed mRNA in the absence of chemical substance” value (yeast gene YBR251W) was 1.4. The “The level of expressed mRNA in the presence of chemical substance/The level of expressed mRNA in the absence of chemical substance” value (yeast gene YBR282W) was 1.2, the “The level of expressed mRNA in the presence of chemical substance/The level of expressed mRNA in the absence of chemical substance” value (yeast gene YCL057W) was 1.1 and the “The level of expressed mRNA in the presence of chemical substance/The level of expressed mRNA in the absence of chemical substance” value (yeast gene YCR046C) was 1.0. The “The level of expressed mRNA in the presence of chemical substance/The level of expressed mRNA in the absence of chemical substance” value (yeast gene YCR083W) was 1.3, the “The level of expressed mRNA in the presence of chemical substance/The level of expressed mRNA in the absence of chemical substance” value (yeast gene YDL067C) was 1.7 and the “The level of expressed mRNA in the presence of chemical substance/The level of expressed mRNA in the absence of chemical substance” value (yeast gene YDL181W) was 1.4. For the same compound, the “The level of expressed mRNA in the presence of chemical substance/The level of expressed mRNA in the absence of chemical substance” value (yeast gene YDL198C) was 1.1, the “The level of expressed mRNA in the presence of chemical substance/The level of expressed mRNA in the absence of chemical substance” value (yeast gene YDR079W) was 1.3 and the “The level of expressed mRNA in the presence of chemical substance/The level of expressed mRNA in the absence of chemical substance” value (yeast gene YDR178W) was 2.3. For the same compound, the “The level of expressed mRNA in the presence of chemical substance/The level of expressed mRNA in the absence of chemical substance” value (yeast gene YDR231C) was 1.3, the “The level of expressed mRNA in the presence of chemical substance/The level of expressed mRNA in the absence of chemical substance” value (yeast gene YDR258C) was 1.3 and the “The level of expressed mRNA in the presence of chemical substance/The level of expressed mRNA in the absence of chemical substance” value (yeast gene YDR298C) was 1.6. The “The level of expressed mRNA in the presence of chemical substance/The level of expressed mRNA in the absence of chemical substance” value (yeast gene YDR347W) was 1.2, the “The level of expressed mRNA in the presence of chemical substance/The level of expressed mRNA in the absence of chemical substance” value (yeast gene YDR377W) was 2.5 and the “The level of expressed mRNA in the presence of chemical substance/The level of expressed mRNA in the absence of chemical substance” value (yeast gene YDR529C) was 2.3. The “The level of expressed mRNA in the presence of chemical substance/The level of expressed mRNA in the absence of chemical substance” value (yeast gene YEL024W) was 1.5, the “The level of expressed mRNA in the presence of chemical substance/The level of expressed mRNA in the absence of chemical substance” value (yeast gene YEL039C) was 1.1 and the “The level of expressed mRNA in the presence of chemical substance/The level of expressed mRNA in the absence of chemical substance” value (yeast gene YER178W) was 0.9. The “The level of expressed mRNA in the presence of chemical substance/The level of expressed mRNA in the absence of chemical substance” value (yeast gene YFL016C) was 0.9, the “The level of expressed mRNA in the presence of chemical substance/The level of expressed mRNA in the absence of chemical substance” value (yeast gene YGL018C) was 1.0 and the “The level of expressed mRNA in the presence of chemical substance/The level of expressed mRNA in the absence of chemical substance” value (yeast gene YGL187C) was 2.4. For the same compound, the “The level of expressed mRNA in the presence of chemical substance/The level of expressed mRNA in the absence of chemical substance” value (yeast gene YGL191W) was 1.7, the “The level of expressed mRNA in the presence of chemical substance/The level of expressed mRNA in the absence of chemical substance” value (yeast gene YGR008C) was 4.2 and the “The level of expressed mRNA in the presence of chemical substance/The level of expressed mRNA in the absence of chemical substance” value (yeast gene YGR028W) was 2.6. The “The level of expressed mRNA in the presence of chemical substance/The level of expressed mRNA in the absence of chemical substance” value (yeast gene YGR062C) was 1.1, the “The level of expressed mRNA in the presence of chemical substance/The level of expressed mRNA in the absence of chemical substance” value (yeast gene YGR076C) was 1.5 and the “The level of expressed mRNA in the presence of chemical substance/The level of expressed mRNA in the absence of chemical substance” value (yeast gene YGR082W) was 0.8. The “The level of expressed mRNA in the presence of chemical substance/The level of expressed mRNA in the absence of chemical substance” value (yeast gene YGR174C) was 2.3, the “The level of expressed mRNA in the presence of chemical substance/The level of expressed mRNA in the absence of chemical substance” value (yeast gene YGR244C) was 3.1 and the “The level of expressed mRNA in the presence of chemical substance/The level of expressed mRNA in the absence of chemical substance” value (yeast gene YHR008C) was 1.0. The “The level of expressed mRNA in the presence of chemical substance/The level of expressed mRNA in the absence of chemical substance” value (yeast gene YIL155C) was 1.4, the “The level of expressed mRNA in the presence of chemical substance/The level of expressed mRNA in the absence of chemical substance” value (yeast gene YJL096W) was 1.2 and the “The level of expressed mRNA in the presence of chemical substance/The level of expressed mRNA in the absence of chemical substance” value (yeast gene YJL102W) was 1.1. The “The level of expressed mRNA in the presence of chemical substance/The level of expressed mRNA in the absence of chemical substance” value (yeast gene YJL133W) was 0.7, the “The level of expressed mRNA in the presence of chemical substance/The level of expressed mRNA in the absence of chemical substance” value (yeast gene YJL166W) was 4.0 and the “The level of expressed mRNA in the presence of chemical substance/The level of expressed mRNA in the absence of chemical substance” value (yeast gene YJL180C) was 1.4. For the same compound, the “The level of expressed mRNA in the presence of chemical substance/The level of expressed mRNA in the absence of chemical substance” value (yeast gene YJR045C) was 0.9 and the “The level of expressed mRNA in the presence of chemical substance/The level of expressed mRNA in the absence of chemical substance” value (yeast gene YJR077C) was 0.8.

— patent US8192962B2, “Processes for detecting toxic substances” (Daikin Industries, Ltd., priority 2001, dated 2012)
